Assays:
[1] = system: AMBEL (Ragweed, Common); test: Postemergence herbicidal evaluation; type: in vivo, Ambrosia artemisifolia; conditions: postemergence
Procedure, shortened: (§1)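 Rate range approx. 0.0156–0.500 kg/ha. Foliar application at 40 psi to ~2-week seedlings; surfactant 0.5% TWEEN 20 in 50/50 acetone/water. Evaluation 4–5 wk post-treatment by 0–9 visual injury score, means of replicate tests.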

[2] = system: CASOB (Sicklepod); test: Postemergence herbicidal evaluation; type: in vivo, Cassia obtusifolia; conditions: postemergence
Procedure, shortened: as §1

[3] = system: CHEAL (Lambsquarters, Common); test: Postemergence herbicidal evaluation; type: in vivo, Chenopodium album; conditions: postemergence
Procedure, shortened: as §1

[4] = system: GALAP (Galium); test: Postemergence herbicidal evaluation; type: in vivo, Galium aparine; conditions: postemergence
Procedure, shortened: as §1

[5] = system: ECHCG (Barnyardgrass); test: Postemergence herbicidal evaluation; type: in vivo, Echinochloa crus-galli; conditions: postemergence
Procedure, shortened: as §1

[6] = system: SETVI (Foxtail, Green); test: Postemergence herbicidal evaluation; type: in vivo, Setaria viridis; conditions: postemergence
Procedure, shortened: as §1

[7] = system: GLXMAW (Soybean, Williams); test: Postemergence herbicidal evaluation; type: in vivo, Glycine max, (L.) Merr. cv Williams; conditions: postemergence
Procedure, shortened: as §1

[8] = system: ORYSAT (Rice, Tebonnet); test: Postemergence herbicidal evaluation; type: in vivo, Oryza sativa, (L.) Tebonnet; conditions: postemergence
Procedure, shortened: as §1

[9] = system: CASOB (Sicklepod); test: Preemergence herbicidal evaluation; type: in vivo, Cassia obtusifolia; conditions: rated 4-5 weeks after treatment; for CASOB rating: preemergence, 0-9 scale
Procedure, shortened: (§2)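 Visual 0-9 rating vs control (stand, vigor, malformation, size, chlorosis, overall appearance), scored 4-5 wk after spraying. Seeded soil cups were treated preemergence with compound in aqueous acetone, ~0.0156-0.500 kg/ha equivalent.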

[10] = system: GALAP (Galium); test: Preemergence herbicidal evaluation; type: in vivo, Galium aparine; conditions: rated 4-5 weeks after treatment; for GALAP rating: preemergence, 0-9 scale
Procedure, shortened: as §2

[11] = system: ZEAMX (Corn, Field); test: Preemergence herbicidal evaluation; type: in vivo, Zea mays; conditions: rated 4-5 weeks after treatment; for ZEAMX rating: preemergence, 0-9 scale
Procedure, shortened: as §2

[12] = system: CYPIR (Rice Flatsedge); test: Preemergence weed control under flooded paddy conditions; type: in vivo, Cyperus iria; conditions: rated 3-4 weeks after treatment
Procedure, shortened: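 First, seeds or propagules go into the top 0.5 cm of silt loam; next, water is held 1.5 to 3 cm over the soil; then compound (50/50 acetone/water) is pipetted into it at about 0.0313 to 0.500 kg/ha; finally plants are rated visually 0-9 after three to four weeks.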

[13] = system: CYPSE (Flatsedge); test: as above; type: in vivo, Cyperus serotinus; conditions: rated 3-4 weeks after treatment
Procedure, shortened: (§3)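 Values are visual 0-9 scores against a control for a preemergence application into paddy flood water at about 0.0313 to 0.500 kg/ha. Greenhouse duration was three to four weeks.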

[14] = system: SAGPY (Arrowhead (Pygmaea)); test: as above; type: in vivo, Sagittaria pygmaea; conditions: rated 3-4 weeks after treatment
Procedure, shortened: as §3

[15] = system: CYPSE (Flatsedge); test: Postemergence weed control under flooded paddy conditions; type: in vivo, Cyperus serotinus; conditions: postemergence weeds
Procedure, shortened: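 Injury ratings (0–9 scale covering stand, vigor, malformation, size, chlorosis and overall appearance versus control) were made three to four weeks after treatment. Test material, about 0.0313 to 0.500 kg/ha a.i. in 50/50 v/v aqueous/acetone, was added to flood water 1.5 to 3 cm deep over 3 to 5 cm weeds and 1.5 to 2.5 leaf rice.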

CCOC(=O)CN1C(=O)C(C)SC1=Nc1cc(-n2c(=O)cc(C(F)(F)F)n(C)c2=O)c(F)cc1Cl (stereo not drawn) [Compound 12]
8.5: GLXMAW herbicidal rating ([7]; rate 0.0625 kg/ha) | ZEAMX preemergence herbicidal rating ([11]; rate 0.2500 kg/ha)
6.5: ZEAMX preemergence herbicidal rating ([11]; rate 0.1250 kg/ha)
7.0: AMBEL herbicidal rating ([1]; rate 0.0156 kg/ha) | AMBEL herbicidal rating ([1]; rate 0.0625 kg/ha) | CASOB herbicidal rating ([2]; rate 0.0625 kg/ha) | GALAP herbicidal rating ([4]; rate 0.0625 kg/ha) | GLXMAW herbicidal rating ([7]; rate 0.0313 kg/ha)
9.0: AMBEL herbicidal rating ([1]; rate 0.0313 kg/ha) | AMBEL herbicidal rating ([1]; rate 0.1250 kg/ha) | CASOB herbicidal rating ([2]; rate 0.1250 kg/ha) | CHEAL herbicidal rating ([3]; rate 0.0156 kg/ha) | CHEAL herbicidal rating ([3]; rate 0.0313 kg/ha) | CHEAL herbicidal rating ([3]; rate 0.0625 kg/ha) | CHEAL herbicidal rating ([3]; rate 0.1250 kg/ha) | ECHCG herbicidal rating ([5]; rate 0.1250 kg/ha) | SETVI herbicidal rating ([6]; rate 0.0625 kg/ha) | SETVI herbicidal rating ([6]; rate 0.1250 kg/ha) | GALAP preemergence herbicidal rating ([10]; rate 0.0625 kg/ha) | GALAP preemergence herbicidal rating ([10]; rate 0.1250 kg/ha) | GALAP preemergence herbicidal rating ([10]; rate 0.2500 kg/ha)
0.0: CASOB herbicidal rating ([2]; rate 0.0156 kg/ha) | ECHCG herbicidal rating ([5]; rate 0.0156 kg/ha) | SETVI herbicidal rating ([6]; rate 0.0156 kg/ha) | CASOB preemergence herbicidal rating ([9]; rate 0.0156 kg/ha) | CASOB preemergence herbicidal rating ([9]; rate 0.0313 kg/ha) | GALAP preemergence herbicidal rating ([10]; rate 0.0156 kg/ha) | GALAP preemergence herbicidal rating ([10]; rate 0.0313 kg/ha) | Herbicidal rating CYPIR ([12]; 0.0313 kg/ha) | Herbicidal rating CYPIR ([12]; 0.0625 kg/ha) | Herbicidal rating CYPIR ([12]; 0.2500 kg/ha) | Herbicidal rating SAGPY ([14]; 0.0313 kg/ha) | Herbicidal rating SAGPY ([14]; 0.2500 kg/ha)
5.5: ZEAMX preemergence herbicidal rating ([11]; rate 0.0625 kg/ha)
6.0: CASOB preemergence herbicidal rating ([9]; rate 0.2500 kg/ha) | Herbicidal rating CYPSE ([13]; 0.2500 kg/ha) | Herbicidal rating CYPSE ([15]; rate 0.2500 kg/ha, 3-4 weeks after treatment)
2.5: ORYSAT herbicidal rating ([8]; rate 0.0156 kg/ha)
3.0: CASOB herbicidal rating ([2]; rate 0.0313 kg/ha) | GALAP herbicidal rating ([4]; rate 0.0156 kg/ha) | ORYSAT herbicidal rating ([8]; rate 0.0313 kg/ha) | ORYSAT herbicidal rating ([8]; rate 0.0625 kg/ha) | Herbicidal rating CYPSE ([13]; 0.0625 kg/ha) | Herbicidal rating CYPSE ([15]; rate 0.0625 kg/ha, 3-4 weeks after treatment)
5.0: GALAP herbicidal rating ([4]; rate 0.0313 kg/ha) | GLXMAW herbicidal rating ([7]; rate 0.0156 kg/ha) | ORYSAT herbicidal rating ([8]; rate 0.1250 kg/ha) | ZEAMX preemergence herbicidal rating ([11]; rate 0.0313 kg/ha)
1.0: ECHCG herbicidal rating ([5]; rate 0.0313 kg/ha) | Herbicidal rating CYPIR ([12]; 0.1250 kg/ha) | Herbicidal rating CYPSE ([13]; 0.0313 kg/ha) | Herbicidal rating CYPSE ([13]; 0.1250 kg/ha) | Herbicidal rating SAGPY ([14]; 0.0625 kg/ha) | Herbicidal rating CYPSE ([15]; rate 0.0313 kg/ha, 3-4 weeks after treatment) | Herbicidal rating CYPSE ([15]; rate 0.1250 kg/ha, 3-4 weeks after treatment)
8.0: GALAP herbicidal rating ([4]; rate 0.1250 kg/ha) | GLXMAW herbicidal rating ([7]; rate 0.1250 kg/ha)
4.5: CASOB preemergence herbicidal rating ([9]; rate 0.0625 kg/ha) | CASOB preemergence herbicidal rating ([9]; rate 0.1250 kg/ha)
4.0: ECHCG herbicidal rating ([5]; rate 0.0625 kg/ha) | SETVI herbicidal rating ([6]; rate 0.0313 kg/ha) | ZEAMX preemergence herbicidal rating ([11]; rate 0.0156 kg/ha) | Herbicidal rating SAGPY ([14]; 0.1250 kg/ha)

C=CCN1C(=O)C(CC(N)=O)SC1=Nc1cc(-n2c(=O)cc(C(F)(F)F)n(C)c2=O)c(F)cc1Cl (stereo not drawn) [Compound 99, 3-Allyl-2-{{2-chloro-5-[3,6-dihydro-3-methyl-2,6-dioxo-4-(trifluoromethyl)-1(2H)-pyrimidinyl]-4-fluorophenyl}imino}-4-oxo-5-thiazolidineacetamide]
8.0: CASOB herbicidal rating ([2]; rate 0.0625 kg/ha) | SETVI herbicidal rating ([6]; rate 0.1250 kg/ha) | GLXMAW herbicidal rating ([7]; rate 0.0625 kg/ha) | GLXMAW herbicidal rating ([7]; rate 0.1250 kg/ha)
6.5: herbicidal rating GLXMAW ([7]; rate 0.0156 kg/ha) | ORYSAT herbicidal rating ([8]; rate 0.1250 kg/ha)
6.0: herbicidal rating GALAP ([4]; rate 0.0313 kg/ha) | ECHCG herbicidal rating ([5]; rate 0.1250 kg/ha) | herbicidal rating SETVI ([6]; rate 0.0156 kg/ha) | ZEAMX rating ([11]; 0.2500 kg/ha)
1.0: CASOB rating ([9]; 0.0625 kg/ha) | GALAP rating ([10]; 0.0625 kg/ha) | ZEAMX rating ([11]; 0.0625 kg/ha)
7.0: herbicidal rating CASOB ([2]; rate 0.0313 kg/ha) | herbicidal rating CHEAL ([3]; rate 0.0156 kg/ha) | herbicidal rating CHEAL ([3]; rate 0.0313 kg/ha) | GALAP herbicidal rating ([4]; rate 0.0625 kg/ha) | ECHCG herbicidal rating ([5]; rate 0.0625 kg/ha) | herbicidal rating SETVI ([6]; rate 0.0313 kg/ha) | CASOB rating ([9]; 0.5000 kg/ha) | GALAP rating ([10]; 0.1250 kg/ha) | GALAP rating ([10]; 0.5000 kg/ha) | ZEAMX rating ([11]; 0.5000 kg/ha)
3.0: herbicidal rating GALAP ([4]; rate 0.0156 kg/ha) | CASOB rating ([9]; 0.2500 kg/ha) | SAGPY herbicidal effect rating ([14]; 0.1250 kg/ha)
5.5: ORYSAT herbicidal rating ([8]; rate 0.0625 kg/ha)
7.5: herbicidal rating GLXMAW ([7]; rate 0.0313 kg/ha)
0.0: CASOB rating ([9]; 0.0156 kg/ha) | GALAP rating ([10]; 0.0156 kg/ha) | GALAP rating ([10]; 0.0313 kg/ha) | ZEAMX rating ([11]; 0.0156 kg/ha) | ZEAMX rating ([11]; 0.0313 kg/ha) | CYPIR herbicidal effect rating ([12]; 0.0313 kg/ha) | CYPIR herbicidal effect rating ([12]; 0.0625 kg/ha) | CYPIR herbicidal effect rating ([12]; 0.1250 kg/ha) | CYPIR herbicidal effect rating ([12]; 0.2500 kg/ha) | CYPIR herbicidal effect rating ([12]; 0.5000 kg/ha) | CYPSE herbicidal effect rating ([13]; 0.0313 kg/ha) | CYPSE herbicidal effect rating ([13]; 0.0625 kg/ha) | CYPSE herbicidal effect rating ([13]; 0.1250 kg/ha) | CYPSE herbicidal effect rating ([13]; 0.2500 kg/ha) | CYPSE herbicidal effect rating ([13]; 0.5000 kg/ha) | SAGPY herbicidal effect rating ([14]; 0.0313 kg/ha) | SAGPY herbicidal effect rating ([14]; 0.0625 kg/ha) | Herbicidal rating CYPSE ([15]; Rate 0.0313 kg/ha, rated 3 to 4 weeks after treatment) | Herbicidal rating CYPSE ([15]; Rate 0.0625 kg/ha, rated 3 to 4 weeks after treatment) | Herbicidal rating CYPSE ([15]; Rate 0.1250 kg/ha, rated 3 to 4 weeks after treatment) | Herbicidal rating CYPSE ([15]; Rate 0.2500 kg/ha, rated 3 to 4 weeks after treatment) | Herbicidal rating CYPSE ([15]; Rate 0.5000 kg/ha, rated 3 to 4 weeks after treatment)
4.5: herbicidal rating ORYSAT ([8]; rate 0.0313 kg/ha)
9.0: herbicidal rating AMBEL ([1]; rate 0.0156 kg/ha) | herbicidal rating AMBEL ([1]; rate 0.0313 kg/ha) | AMBEL herbicidal rating ([1]; rate 0.0625 kg/ha) | AMBEL herbicidal rating ([1]; rate 0.1250 kg/ha) | CASOB herbicidal rating ([2]; rate 0.1250 kg/ha) | CHEAL herbicidal rating ([3]; rate 0.0625 kg/ha) | CHEAL herbicidal rating ([3]; rate 0.1250 kg/ha) | GALAP herbicidal rating ([4]; rate 0.1250 kg/ha) | SETVI herbicidal rating ([6]; rate 0.0625 kg/ha) | GALAP rating ([10]; 0.2500 kg/ha)
4.0: herbicidal rating CASOB ([2]; rate 0.0156 kg/ha) | herbicidal rating ECHCG ([5]; rate 0.0156 kg/ha) | herbicidal rating ECHCG ([5]; rate 0.0313 kg/ha) | herbicidal rating ORYSAT ([8]; rate 0.0156 kg/ha) | SAGPY herbicidal effect rating ([14]; 0.2500 kg/ha) | SAGPY herbicidal effect rating ([14]; 0.5000 kg/ha)
2.0: CASOB rating ([9]; 0.1250 kg/ha) | ZEAMX rating ([11]; 0.1250 kg/ha)

Reference: patent US20020137929A1, “1 - (3-heterocyclylphenyl) isothiourea, -isourea, -guanidine and -amidine herbicidal agents” (Intellectual Property Department, BASF Aktiengesellschaft, priority 1998, published 2002)
